Data: US20230117205A1, “B7-H4 ANTIBODY-DRUG CONJUGATES FOR THE TREATMENT OF CANCER” (SEAGEN INC., priority 2021, published 2023)

What was measured:
[1] = tested on: MDA-MB-468 xenograft model; assay: MDA-MB-468 xenograft, Study MDAMB468-6; format: in vivo, NSG mice; settings: 3 mg/kg, three weekly doses, i.p.
Procedure: Tumor volume was measured twice weekly until study day 80.
Female NSG mice were implanted with 1×10^6 MDA-MB-468 cells in 25% Matrigel H C (Corning #354248) subcutaneously. Once tumor volumes reached 100 mm^3, mice were randomized into treatment groups of 5 mice each and dosed with 0.3, 1, or 3 mg/kg every seven days for three total doses (q7dx3). Twenty-four hours prior to receiving each ADC dose, each animal was treated with 10 mg/kg hIVIG (Grifolds). Tumor volumes were measured twice per week, animals were euthanized when tumor volume reached 700-1000 mm^3. Stock concentrations of ADC were diluted to desired concentration (with 0.01% Tween20 in PBS) and injected i.p. into each treatment group

[2] = tested on: TNBC PDX models; assay: TNBC patient-derived xenograft models; format: in vivo, mice; settings: 3 mg/kg q7dx3; for % TGI: vs untreated
Procedure: (§1) Tumor size and body weight were measured twice weekly, and the study was terminated when tumors in the control group reached 1500 mm^3 or up to Day 28, whichever occurred first, or maximum up to Day 60.
(§2) Specifically, stock mice were bilaterally implanted with fragments from one of the Champions TumorGraft® models representing human triple negative breast cancer. After the tumors reached 1000-1500 mm^3, they were harvested, and the tumor fragments were implanted subcutaneously (s.c.) in the left flank of the female study mice. Each animal was implanted with a specific passage lot and documented. Tumor growth was monitored twice a week using digital calipers, and the tumor volume (TV) was calculated using the formula (0.52×[length×width^2]). When the TV reached approximately 150-300 mm^3, animals were matched by tumor size and assigned into control (untreated) or treatment groups (n=1-3 animals/group). Each animal in the treatment groups was dosed with 10 mg/kg hIVIG (Grifolds), followed by 3 mg/kg of ADC every seven days for three total doses (q7dx3). Tumor size and body weight were measured twice weekly, and the study was terminated when tumors in the control group reached 1500 mm^3 or up to Day 28, whichever occurred first, or maximum up to Day 60.
(§3) Inhibition of tumor growth was determined by calculating the percent TGI on the day at which animals in the control group were terminated (100%×[1−(final MTV−initial MTV of a treated group)/(final MTV−initial MTV of the control group)]). Treatment started on Day 0.

[3] = tested on: Ovarian carcinoma PDX models; assay: Ovarian carcinoma patient-derived xenograft models; format: in vivo, mice; settings: 3 mg/kg q7dx3; for % TGI: vs untreated
Procedure: as §1
as §2, with “Stock” for “stock”, “HR^+ BC or ovarian” for “triple negative breast”, “(n=3” for “(n=1-3”, “with” for “with 10 mg/kg hIVIG (Grifolds), followed by”
as §3

[4] = tested on: B7-H4 expression on OVCAR3 tumors; assay: IHC of B7-H4 on treated OVCAR3 xenograft tumors; format: in vivo, SCID mice; settings: OVCAR3 tumors after treatment
Procedure: Antigen retrieval was performed using a Decloaking Chamber NxGen Biocare and the 110° C. program with Diva Retrieval solution. Slides were stained on the IntelliPath Automated stainer per the following protocol: Remove hot containers from the decloaking chamber and rinse in deionized water. Place slides in TBST prior to adding to IntelliPath. Hydrate slides on stainer prior to automation Add 300 uL/slide Peroxidaze (Biocare #PX968) and incubate 10 minutes. Wash slides in TBST. Add 300 uL/slide Sniper block (Biocare #B5966) and incubate 10 minutes. Blot off blocking solution. Add 300 uL/slide primary antibody and incubate 1 hour. Wash slides twice in TBST. Add 300 uL/slide HRP polymer and incubate 30 minutes. Wash slides twice in TBST. Add 300 uL/slide DAB (Vector #sk-4103) and incubate 5 minutes. Wash in TBST. Add 300 uL/slide hematoxylin and incubate 2 minutes. Wash in deionized water. Dehydrate slides by placing them in the oven for 30 minutes. Place coverslip on slides. Images were analyzed using Halo image analysis software (Indica Labs). The H-score was calculated according to the following equation: (3×% Strong Signal)+(2×% Moderate Signal)+(Weak Signal). […]

SGN-B7H4V: ADC of fully human IgG1 anti-B7-H4 mAb conjugated to monomethyl auristatin E (MMAE) via a protease-cleavable valine-citrulline linker (vedotin)
anti-tumor activity (tumor volume) [1]: transient regression of tumor volumes in all mice
PDX models with tumor regression or tumor growth delay (e.g. TGI>50%) ([2]; TNBC): 9/11
% TGI ([2]; TNBC_1, Day 13): 111%
% TGI ([2]; TNBC_2, Day 7): 86%
% TGI ([2]; TNBC_3, Day 20): 71%
% TGI ([2]; TNBC_4, Day 20): 55%
% TGI ([2]; TNBC_5, Day 9): 106%
% TGI ([2]; TNBC_6, Day 20): 62%
% TGI ([2]; TNBC_7, Day 20): 25%
% TGI ([2]; TNBC_8, Day 17): 67%
% TGI ([2]; TNBC_9, Day 22): 26%
% TGI ([2]; TNBC_10, Day 27): 100%
% TGI ([2]; TNBC_11, Day 52): 109%
% TGI ([3]; Ovarian_1, Day 48): 110%
% TGI ([3]; Ovarian_2, Day 41): 103%
% TGI ([3]; Ovarian_3, Day 53): 84%
% TGI ([3]; Ovarian_4, Day 52): −57%
% TGI ([3]; Ovarian_5, Day 36): 83%
% TGI ([3]; Ovarian_6, Day 23): −33%
PDX models with tumor regression or tumor growth delay (e.g. TGI>50%) ([3]; ovarian carcinoma): 4/6
impact on tumor B7-H4 expression [4]: did not have a significant impact
